# System: SMARTCAR-MTH1-wt-HiBiT (Jurkat.7 cells)
# Experiment: HiBit Lytic Assay (HiBit DC50, MTH1 degraders of Table 2)
# Type: cell-based, human
# Conditions: Jurkat.7 SMARTCAR-MTH1-wt-HiBiT cells, compound treatment time 4 hr, 11-point half log dose response
# Method: Example 3. HiBit Lytic Assay
# • Compound is made at 10 mM, half log dilution, 11 points. • MDR plates can also be ordered from Frontier with same format. • 1. Barcode a 384LDV plate (384-well Low Dead Volume Microplate, Labcyte LP-0200) (Echo compatible) on the left side. • 2. Transfer 13.6 μL of 10 mM compound into column 1 of LDV plate (Labcyte). • 3. Fill column 2-11 and column 23 of MDR plate with 9.30 μL of DMSO. • 4. Serial dilute 3.16 fold from column 1 to 2 by transferring 4.30 μL from column 1 to column 2, and so on to column 11. *Change tip in every dilution to prevent compound carryover effect! • 5. Seal the plate with Plate Sealer, then store the MDR plate at room temperature for short term storage and in −20° C. for long term storage.
# • Cells are treated with 30 nL of each compound at 10 mM, half log dilution, 11 points with final concentration of 1000 nM or 833 nM, half log dilution, 11 points, in duplicates. Final DMSO concentration is 0.1%. • 1. Barcode the plates made on the left side and label the plates with silver marker. • 2. Dispense with the following scheme: • a. 30 nL of compound into corresponding wells in cell plates via Echo550 with “MDR32_HiBiT16_30 nL”. Top concentration will be 1000 nM. • 3. Seal the plate with Plate Sealer.
# • Cells are dispensed at density specified in Cell Line Table in 384-well microplate. • 1. Culture cells to between 50-80% of confluence in sterile culture flasks of appropriate size. • 2. For Adherent Cell Lines: • a. Aspirate off growth media in culture flask, and wash off the Phenol Red media with 5 mL of 1×PBS. • b. Add 5 mL of Trypsin to the cells, incubate at 37° C. for 5 minutes. • c. Add 5 mL of growth media to the trypsinzed cells, and resuspend. • 3. Remove 10 μL of cells, and resuspend the cells with 10 μL of Trypan Blue. Insert the solution to counting chamber slide, and count the cells via cell counter. • 4. Adjust the cell concentration to specified plating density, and strain the cells with cell strainer. • 5. Dispense the cells via E1-ClipTip™ Electronic Multichannel Pipettes or Multidrop™ Combi Reagent Dispenser with Standard tube dispensing cassette: • a. Prime the cassette with 10-20 mL of ddH2O. • b. Prime the cassette with 10-20 mL of cells. • c. Dispense the cells at low speed for 30 μL/well in Corning® 384 Well Low Flange Black Flat Bottom Polystyrene TC-Treated Microplate. • d. Wash the cassette with 10-20 mL of ddH2O, follow by 10-20 mL of 70% EtOH, then again with 10-20 mL of ddH2O. • 6. Incubate the plates at 37° C.×compound treatment time.
# • 1. If not already, bring Nano-Glo® HiBiT Lytic Buffer to room temperature. • 2. Determine the amount of reagent needed. A volume of reagent equal to the volume of media in the well should be added (i.e. 30 μL of cells will need 30 μL of HiBiT Lytic reagent). • 3. Into a given volume of buffer, dilute the substrate 50-fold and the LgBiT protein 100-fold. For example, to make 10 ml of reagent, add the following: • 10 ml Nano-Glo® HiBiT Lytic Buffer • 200 μl Nano-Glo® HiBiT Lytic Substrate • 100 μl LgBiT Protein • The reagent should be reconstituted immediately before use. However, once reconstituted, it should take about 4 hours for the activity to decrease 10%. • 4. Cool down the cell plate to room temperature for 10-15 minutes without lid. • 5. Dispense the HiBiT Lytic Reagent via E1-ClipTip™ Electronic Multichannel Pipettes or Multidrop™ Combi Reagent Dispenser with Standard tube dispensing cassette: • a. Prime the cassette with 10-20 mL of ddH2O. • b. Prime the cassette with 10-20 mL of CTG 2.0. • c. Dispense the HiBiT Lytic Reagent at medium speed for 30 μL/well in cell plate to column 1-23 (column 24 will be used as plate background). • d. Wash the cassette with 10-20 mL of ddH2O, follow by 10-20 mL of 70% EtOH, then again with 10-20 mL of ddH2O. • 6. Incubate the cell plate at room temperature for 10 minutes without lid. • 7. […]
row,Structure (SMILES),DC50 [nM]
1,"CNC(=O)c1cnc2ccc(-c3ccc(C(=O)NCCCCNC(=O)COc4cccc5c4C(=O)N(C4CCC(=O)NC4=O)C5=O)nc3)cc2c1Nc1ccccc1 (stereo not shown) [Compound 357, 4-anilino-6-[6-[4-[[2-[2-(2,6-dioxo-3-piperidyl)-1,3-dioxo-isoindolin-4-yl]oxyacetyl]amino]butylcarbamoyl]-3-pyridyl]-N-methyl-quinoline-3-carboxamide]",< 100
2,"CNC(=O)c1cnc2cc(OC)c(-c3ccc(C(=O)NCCCCNC(=O)CNc4cccc5c4C(=O)N(C4CCC(=O)NC4=O)C5=O)cc3)cc2c1Nc1ccccc1 (stereo not shown) [Compound 344, 6-(4-((4-(2-((2-(2,6-dioxopiperidin-3-yl)-1,3-dioxoisoindolin-4-yl)amino)acetamido)butyl)carbamoyl)phenyl)-7-methoxy-N-methyl-4-(phenylamino)quinoline-3-carboxamide]",< 100
3,"CNC(=O)c1cnc2ccc(N3CCC(C(=O)NCCCCNC(=O)COc4cccc5c4C(=O)N(C4CCC(=O)NC4=O)C5=O)CC3)cc2c1Nc1ccccc1 (stereo not shown) [Compound 347, 4-anilino-6-[4-[4-[[2-[2-(2,6-dioxo-3-piperidyl)-1,3-dioxo-isoindolin-4-yl]oxyacetyl]amino]butylcarbamoyl]-1-piperidyl]-N-methyl-quinoline-3-carboxamide]",< 100
4,"NC(=O)c1cnc2ccc(-c3ccc(C(=O)NCCCCNC(=O)CNc4cccc5c4CN(C4CCC(=O)NC4=O)C5=O)cc3)cc2c1Nc1ccccc1 (stereo not shown) [Compound 303, 4-anilino-6-[4-[4-[[2-[[2-(2,6-dioxo-3-piperidyl)-1-oxo-isoindolin-4-yl]amino]acetyl]amino]butylcarbamoyl]phenyl]quinoline-3-carboxamide]",< 100
5,"NC(=O)c1cnc2ccccc2c1Nc1ccc(-c2ccc(C(=O)NCCCCNC(=O)COc3cccc4c3C(=O)N(C3CCC(=O)NC3=O)C4=O)cc2)cc1 (stereo not shown) [Compound 309, 4-[4-[4-[4-[[2-[2-(2,6-dioxo-3-piperidyl)-1,3-dioxo-isoindolin-4-yl]oxyacetyl]amino]butylcarbamoyl]phenyl]anilino]quinoline-3-carboxamide]",< 100
6,"NC(=O)c1cnc2ccc(-c3ccc(C(=O)NCCCNC(=O)CNc4cccc5c4C(=O)N(C4CCC(=O)NC4=O)C5=O)cc3)cc2c1Nc1ccccc1 (stereo not shown) [Compound 307, 6-(4-((3-(2-((2-(2,6-dioxopiperidin-3-yl)-1,3-dioxoisoindolin-4-yl)amino)acetamido)propyl)carbamoyl)phenyl)-4-(phenylamino)quinoline-3-carboxamide]",< 100
7,"CNC(=O)c1cnc2ccc(-c3ccc(CCCCCNC(=O)CNc4cccc5c4C(=O)N(C4CCC(=O)NC4=O)C5=O)nc3)cc2c1Nc1ccccc1 (stereo not shown) [Compound 385, 4-anilino-6-[6-[5-[[2-[[2-(2,6-dioxo-3-piperidyl)-1,3-dioxo-isoindolin-4-yl]amino]acetyl]amino]pentyl]-3-pyridyl]-N-methyl-quinoline-3-carboxamide]",< 100
8,"NC(=O)c1cnc2ccc(-c3ccc(C(=O)NCCCNC(=O)COc4cccc5c4C(=O)N(C4CCC(=O)NC4=O)C5=O)cc3)cc2c1Nc1ccccc1 (stereo not shown) [Compound 306, 6-(4-((3-(2-((2-(2,6-dioxopiperidin-3-yl)-1,3-dioxoisoindolin-4-yl)oxy)acetamido)propyl)carbamoyl)phenyl)-4-(phenylamino)quinoline-3-carboxamide]",< 100
9,"CNC(=O)c1cnc2ccc(-c3ccc(C(=O)NCCCCNC(=O)CNc4cccc5c4C(=O)N(C4CCC(=O)NC4=O)C5=O)nc3)cc2c1Nc1ccccc1 (stereo not shown) [Compound 358, 4-anilino-6-[6-[4-[[2-[[2-(2,6-dioxo-3-piperidyl)-1,3-dioxo-isoindolin-4-yl]amino]acetyl]amino]butylcarbamoyl]-3-pyridyl]-N-methyl-quinoline-3-carboxamide]",< 100

# Continued, values first:
row,DC50 [nM],Structure (SMILES)
1,< 100,"CNC(=O)c1cnc2ccc(-c3nc(C(=O)NCCCCNC(=O)CNc4cccc5c4C(=O)N(C4CCC(=O)NC4=O)C5=O)cs3)cc2c1Nc1ccccc1 (stereo not shown) [Compound 387, 2-[4-anilino-3-(methylcarbamoyl)-6-quinolyl]-N-[4-[[2-[[2-(2,6-dioxo-3-piperidyl)-1,3-dioxo-isoindolin-4-yl]amino]acetyl]amino]butyl]thiazole-4-carboxamide]"
2,< 1000,"CNc1c(C(=O)NC2CC2)cnc2cc(C(F)(F)F)c(-c3ccc(C(=O)NCCCCn4cc(C(C)Nc5cccc6c5C(=O)N(C5CCC(=O)NC5=O)C6=O)nn4)nc3)cc12 (stereo not shown) [Compound 431, N-cyclopropyl-6-(6-((4-(4-(1-((2-(2,6-dioxopiperidin-3-yl)-1,3-dioxoisoindolin-4-yl)amino)ethyl)-1H-1,2,3-triazol-1-yl)butyl)carbamoyl)pyridin-3-yl)-4-(methylamino)-7-(trifluoromethyl)quinoline-3-carboxamide]"
3,< 100,"CNC(=O)c1cnc2ccc(NCCCCCCCCCCNC(=O)CNc3cccc4c3C(=O)N(C3CCC(=O)NC3=O)C4=O)cc2c1Nc1ccccc1 (stereo not shown) [Compound 451, 6-((10-(2-((2-(2,6-dioxopiperidin-3-yl)-1,3-dioxoisoindolin-4-yl)amino)acetamido)decyl)amino)-N-methyl-4-(phenylamino)quinoline-3-carboxamide]"
4,< 100,"CNC(=O)c1cnc2ccc(NCCCCCCCCCCNC(=O)[C@@H](C)Nc3cccc4c3C(=O)N(C3CCC(=O)NC3=O)C4=O)cc2c1Nc1ccccc1 (stereo partly drawn) [Compound 443, 6-((10-((2R)-2-((2-(2,6-dioxopiperidin-3-yl)-1,3-dioxoisoindolin-4-yl)amino)propanamido)decyl)amino)-N-methyl-4-(phenylamino)quinoline-3-carboxamide]"
5,< 100,"COc1cc2ncc(C(=O)NC3CC3)c(Nc3ccccc3)c2cc1-c1ccc(C(=O)NCCCCn2cc(C(C)Nc3cccc4c3C(=O)N(C3CCC(=O)NC3=O)C4=O)nn2)c(F)c1 (stereo not shown) [Compound 432, N-cyclopropyl-6-(4-((4-(4-(1-((2-(2,6-dioxopiperidin-3-yl)-1,3-dioxoisoindolin-4-yl)amino)ethyl)-1H-1,2,3-triazol-1-yl)butyl)carbamoyl)-3-fluorophenyl)-7-methoxy-4-(phenylamino)quinoline-3-carboxamide]"
6,< 100,"NC(=O)c1cnc2ccc(NCCCCCCCCCCNC(=O)CNc3cccc4c3C(=O)N(C3CCC(=O)NC3=O)C4=O)cc2c1Nc1ccccc1 (stereo not shown) [Compound 464, 6-((10-(2-((2-(2,6-dioxopiperidin-3-yl)-1,3-dioxoisoindolin-4-yl)amino)acetamido)decyl)amino)-4-(phenylamino)quinoline-3-carboxamide]"
7,< 100,"CNc1c(C(=O)NC2CC2)cnc2cc(C(F)(F)F)c(-c3ccc(C(=O)NCCCCn4cc(C(C)(C)Nc5cccc6c5C(=O)N(C5CCC(=O)NC5=O)C6=O)nn4)nc3)cc12 (stereo not shown) [Compound 437, N-cyclopropyl-6-(6-((4-(4-(2-((2-(2,6-dioxopiperidin-3-yl)-1,3-dioxoisoindolin-4-yl)amino)propan-2-yl)-1H-1,2,3-triazol-1-yl)butyl)carbamoyl)pyridin-3-yl)-4-(methylamino)-7-(trifluoromethyl)quinoline-3-carboxamide]"

# — patent publication US20210198256A1, “COMPOUNDS FOR THE DEGRADATION OF BRD9 OR MTH1” (C4 Therapeutics, Inc., priority 2018, published 2021)
